Results reported in patent US20240391965A1, “STAPLED ANTIMICROBIAL PEPTIDES (STAMPS) AND USES THEREOF” (Lytica Therapeutics, Inc., priority 2021, published 2024).
Values after ≈ are worked out from the molar mass of the structure shown. Starred links: 1 amine or outer side, 2 acyl side, 3 side chain; linkers in the order of their positions; H or OH if unused. Positions of bridges follow the written chain, without caps; N, C: chain ends. Residues, ends and D or L forms follow the SMILES beside them. 2,2'Bipyridine(5,5'-diCH2) = c1cc(-c2ccc(C[*:2])cn2)ncc1C[*:1]; mXylylene = c1cc(C[*:1])cc(C[*:2])c1; pXylylene = c1cc(C[*:2])ccc1C[*:1]; X1 = C(=CC[*:2])C[*:1]

Key:
[1] = tested on: Acinetobacter baumannii (A. baumannii); type: cell-based; details: microbroth dilution, 20-24 hours at 37° C.
How it was run: (§1)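 Broth microdilution adapted from CLSI in Mueller-Hinton broth or cation-adjusted MHB II; overnight cultures at 37 °C were regrown 3-4 h, then added to serially diluted peptide at a final 5×10^5 CFU/ml. After 20-24 h at 37 °C, MIC was taken as the lowest peptide concentration with no visible growth.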

[2] = tested on: Escherichia coli (E. coli); type: cell-based; details: microbroth dilution, 20-24 hours at 37° C.
How it was run: as §1

[3] = tested on: Klebsiella pneumoniae (K. pneumoniae); type: cell-based; details: microbroth dilution, 20-24 hours at 37° C.
How it was run: as §1

[4] = tested on: Pseudomonas aeruginosa (P. aeruginosa); type: cell-based; details: microbroth dilution, 20-24 hours at 37° C.
How it was run: as §1

[5] = tested on: Staphylococcus aureus (S. aureus); type: cell-based; details: microbroth dilution, 20-24 hours at 37° C.
How it was run: as §1

[6] = 90 minute cytotoxicity assay (LDH release), renal toxicity; type: cell-based; details: 90 minutes of incubation, LDH release; read-out: Inhibitory Concentration at 50% Cytotoxicity (IC50) Human Renal Proximal Tubule Epithelial Cells (RPTEC)
How it was run: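 RPTEC plated overnight, given fresh medium, then exposed to serial peptide dilutions or vehicle for 90 min at 37° C. Medium LDH measured by 10 min reagent incubation and absorbance at 490 nm.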

[7] = 48 hours cytotoxicity assay (CellTiter-Glo), liver toxicity; type: cell-based, human; details: 48 hours of incubation, CellTiter-Glo; read-out: Inhibitory Concentration at 50% Cytotoxicity (IC50) Human Liver Cells (HepG2)
How it was run: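 HepG2 cells in EMEM with 10% FBS, allowed to attach 4 h, then exposed to serially diluted StAMPs or vehicle for 48 h at 37 °C. Viability read by CellTiter-Glo luminescence.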

Structure (SMILES): CC[C@H](C)[C@H](NC(=O)CN)C(=O)N[C@@H](Cc1ccccc1)C(=O)N[C@@H](CO)C(=O)N[C@@H](CCCCN)C(=O)N[C@@H](CC(C)C)C(=O)N[C@@H](C)C(=O)NCC(=O)N[C@@H](CCCCN)C(=O)N[C@@H](CCCCN)C(=O)N[C@H]1CSCc2ccc(cc2)CSC[C@@H](C(=O)N[C@H](C(=O)N[C@@H](CO)C(=O)NCC(=O)N[C@@H](CC(C)C)C(=O)N[C@@H](CCCCN)C(=O)NCC(N)=O)[C@@H](C)CC)NC(=O)[C@H](CC(C)C)NC(=O)[C@H](CC(N)=O)NC(=O)[C@H](CCCCN)NC1=O [compound 18] (H-GIFSKLAGKKCKNLCISGLKG-NH2; linker 11-15 via pXylylene)
- Minimum Inhibitory Concentration (MIC) A. baumannii [1]: >64 µg/mL
- Minimum Inhibitory Concentration (MIC) E. coli [2]: >64 µg/mL
- Minimum Inhibitory Concentration (MIC) K. pneumoniae [3]: >64 µg/mL
- Minimum Inhibitory Concentration (MIC) P. aeruginosa [4]: >64 µg/mL
- Minimum Inhibitory Concentration (MIC) S. aureus [5]: >64 µg/mL
- IC50 [6]: > 200 µg/mL
- IC50 [7]: > 200 µg/mL

Structure (SMILES): CC[C@H](C)[C@H](NC(=O)CN)C(=O)N[C@@H](Cc1ccccc1)C(=O)N[C@@H](CO)C(=O)N[C@@H](CCCCN)C(=O)N[C@@H](CC(C)C)C(=O)N[C@@H](C)C(=O)NCC(=O)N[C@@H](CCCCN)C(=O)N[C@@H](CCCCN)C(=O)N[C@H](C(=O)N[C@@H](CCCCN)C(=O)N[C@@H](CC(N)=O)C(=O)N[C@@H](CC(C)C)C(=O)N[C@H]1CSCc2ccc(cc2)CSC[C@@H](C(=O)N[C@@H](CCCCN)C(=O)NCC(N)=O)NC(=O)CNC(=O)[C@H](CO)NC(=O)[C@H]([C@@H](C)CC)NC1=O)[C@@H](C)CC [compound 30] (H-GIFSKLAGKKIKNLCISGCKG-NH2; linker 15-19 via pXylylene)
- Minimum Inhibitory Concentration (MIC) A. baumannii [1]: 16 µg/mL
- Minimum Inhibitory Concentration (MIC) E. coli [2]: 64 µg/mL
- Minimum Inhibitory Concentration (MIC) K. pneumoniae [3]: >64 µg/mL
- Minimum Inhibitory Concentration (MIC) P. aeruginosa [4]: 64 µg/mL
- Minimum Inhibitory Concentration (MIC) S. aureus [5]: >64 µg/mL
- IC50 [6]: > 200 µg/mL
- IC50 [7]: > 200 µg/mL

Structure (SMILES): CC[C@H](C)[C@H](NC(=O)CN)C(=O)N[C@@H](Cc1ccccc1)C(=O)N[C@@H](CO)C(=O)N[C@@H](CCCCN)C(=O)N[C@@H](CC(C)C)C(=O)N[C@@H](C)C(=O)N[C@H]1CSCC=CCSC[C@@H](C(=O)N[C@@H](CC(N)=O)C(=O)N[C@@H](CC(C)C)C(=O)N[C@@H](CC(C)C)C(=O)N[C@H](C(=O)N[C@@H](CO)C(=O)NCC(=O)N[C@@H](CC(C)C)C(=O)N[C@@H](CCCCN)C(=O)NCC(N)=O)[C@@H](C)CC)NC(=O)[C@H]([C@@H](C)CC)NC(=O)[C@H](CCCCN)NC(=O)[C@H](CCCCN)NC1=O [compound 12] (H-GIFSKLACKKICNLLISGLKG-NH2; linker 8-12 via X1)
- Minimum Inhibitory Concentration (MIC) A. baumannii [1]: 4 µg/mL
- Minimum Inhibitory Concentration (MIC) E. coli [2]: 4 µg/mL
- Minimum Inhibitory Concentration (MIC) K. pneumoniae [3]: 16 µg/mL
- Minimum Inhibitory Concentration (MIC) P. aeruginosa [4]: 16 µg/mL
- Minimum Inhibitory Concentration (MIC) S. aureus [5]: >64 µg/mL
- IC50 [6]: 70 µg/mL (≈ 31 µM)
- IC50 [7]: 50 µg/mL (≈ 22.1 µM)

Structure (SMILES): CC[C@H](C)[C@H](NC(=O)CN)C(=O)N[C@@H](Cc1ccccc1)C(=O)N[C@@H](CO)C(=O)N[C@@H](CCCCN)C(=O)N[C@@H](CC(C)C)C(=O)N[C@H]1CSCc2ccc(nc2)-c2ccc(cn2)CSC[C@@H](C(=O)N[C@@H](CC(C)C)C(=O)N[C@H](C(=O)N[C@@H](CO)C(=O)NCC(=O)N[C@@H](CC(C)C)C(=O)N[C@@H](CCCCN)C(=O)NCC(N)=O)[C@@H](C)CC)NC(=O)[C@H](CC(N)=O)NC(=O)[C@H](CCCCN)NC(=O)[C@H]([C@@H](C)CC)NC(=O)[C@H](CCCCN)NC(=O)[C@H](CCCCN)NC(=O)CNC1=O [compound 89] (H-GIFSKLCGKKIKNCLISGLKG-NH2; linker 7-14 via 2,2'Bipyridine(5,5'-diCH2))
- Minimum Inhibitory Concentration (MIC) A. baumannii [1]: 4 µg/mL
- Minimum Inhibitory Concentration (MIC) E. coli [2]: 4 µg/mL
- Minimum Inhibitory Concentration (MIC) K. pneumoniae [3]: 16 µg/mL
- Minimum Inhibitory Concentration (MIC) P. aeruginosa [4]: 32 µg/mL
- Minimum Inhibitory Concentration (MIC) S. aureus [5]: >64 µg/mL
- IC50 [6]: 80 µg/mL (≈ 33.5 µM)
- IC50 [7]: 62 µg/mL (≈ 26 µM)

Structure (SMILES): CC[C@H](C)[C@H](NC(=O)CN)C(=O)N[C@@H](Cc1ccccc1)C(=O)N[C@@H](CO)C(=O)N[C@@H](CCCCN)C(=O)N[C@@H](CC(C)C)C(=O)N[C@@H](C)C(=O)NCC(=O)N[C@@H](CCCCN)C(=O)N[C@H]1CSCc2cccc(c2)CSC[C@@H](C(=O)N[C@@H](CC(C)C)C(=O)N[C@H](C(=O)N[C@@H](CO)C(=O)NCC(=O)N[C@@H](CC(C)C)C(=O)N[C@@H](CCCCN)C(=O)NCC(N)=O)[C@@H](C)CC)NC(=O)[C@H](CC(N)=O)NC(=O)[C@H](CCCCN)NC(=O)[C@H]([C@@H](C)CC)NC1=O [compound 14] (H-GIFSKLAGKCIKNCLISGLKG-NH2; linker 10-14 via mXylylene)
- Minimum Inhibitory Concentration (MIC) A. baumannii [1]: 8 µg/mL
- Minimum Inhibitory Concentration (MIC) E. coli [2]: 4 µg/mL
- Minimum Inhibitory Concentration (MIC) K. pneumoniae [3]: 16 µg/mL
- Minimum Inhibitory Concentration (MIC) P. aeruginosa [4]: 16 µg/mL
- Minimum Inhibitory Concentration (MIC) S. aureus [5]: 32 µg/mL
- IC50 [6]: 41 µg/mL (≈ 18.2 µM)
- IC50 [7]: 49 µg/mL (≈ 21.8 µM)
